The record followed here is ChEMBL document CHEMBL1687884, “Mirabamides E-H, HIV-inhibitory depsipeptides from the sponge Stelletta clavosa” (J Nat Prod, 2011).

Numbered stars: 1 amine (or outer) side, 2 acyl side, 3 side chain; on linkers, the order of the positions; unused ones are H or OH. Bridge positions count the residues as written; N and C are the ends. Square brackets hold non-standard residues; d marks the D form. Peptide text beside a SMILES is read from it. * marks the point of attachment. dLeu(3R-OH) = CC(C)[C@@H](O[*:3])[C@@H](N[*:1])C(=O)[*:2]; Gln(3S,4R-Me2) = C[C@H]([C@H](N)C(=O)O)[C@@H](C)C(N)=O; dTyr(βR-OMe) = CO[C@H](c1ccc(O)cc1)[C@@H](N)C(=O)O; Pip(4S-Cl) = O=C(O)[C@@H]1C[C@@H](Cl)CCN1; X1 = CCC(C)/C=C(C)/C=C\C(O)C(C)(O)C(=O)*; Abu(3R-NH2) = C[C@@H](N)[C@H](N)C(=O)O; NMeT = CN[C@H](C(=O)O)[C@@H](C)O

This assay has as its system Human immunodeficiency virus 1. Kind of assay: Inhibition of HIV1 isolate YU2 infected in human TZM-bl cells expressing CD4 and CCR5 assessed as assessed inhibition of viral entry after 24 hrs by luciferase reporter assay. The following applies: Human immunodeficiency virus 1, isolate YU2, TZM-bl. Type of assay: functional, organism-based. On the technique in general: Reporter assays use an easily measured gene product as a stand-in for the process of interest.

Turning to `CCC(C)/C=C(C)/C=C\C(O)C(C)(O)C(=O)NCC(=O)N[C@H](C(=O)N[C@H](C(=O)N[C@H](C(=O)N[C@H]1C(=O)N[C@H](COC)C(=O)NCC(=O)N[C@@H](C)C(=O)N(C)[C@@H]([C@@H](C)O)C(=O)N[C@H]([C@H](OC)c2ccc(O)cc2)C(=O)N2CC[C@H](Cl)C[C@H]2C(=O)O[C@@H]1C(C)C)[C@@H](C)[C@@H](C)C(N)=O)[C@@H](C)N)[C@@H](C)O` (stereo partly drawn) [MIRABAMIDE C] (X1-GT[Abu(3R-NH2)][Gln(3S,4R-Me2)][dLeu(3R-OH)][dS](Me)GA[NMeT][dTyr(βR-OMe)][Pip(4S-Cl)]; ester 5-C), the IC50 – broadly, the concentration needed to halve the response being measured – was 123 nM.
